Experiments:
[1] = Toxic dose at which 50 percent of the mice failed the rotarod toxicity test; type: organism-based; settings: mouse, in vivo
[2] = target: GABA-A receptor; anion channel; assay: Displacement of [35S]TBPS from Gamma-aminobutyric acid A (GABA-A) receptor of rat cerebral cortex; type: tissue-based
Mus musculus = species on record: Mus musculus; assay: Effective dose required for anticonvulsant activity against pentylenetetrazole-induced seizures in mice; type: functional

| SMILES | TD50 [1] | IC50 [2] | ED50 (Mus musculus) |
| --- | --- | --- | --- |
| CC1CC(=O)C2OC1OC2(C)C (stereo not drawn) | > 300 mg/kg | 3020 µM | 131 mg/kg |
| CC12CCC(=O)C(O1)C(C)(C)O2 (stereo not drawn) | > 300 mg/kg | 3130 µM | 247 mg/kg |
| CCC1CCCCC1=O (stereo not drawn) | 245 mg/kg | 1200 µM | 140 mg/kg |
| C[C@@H]1CC(=O)[C@H]2O[C@@H]1OC2(C)C | – | 2850 µM | 110 mg/kg |
| C=CC(C)(C)c1cccc2[nH]c3c(c12)C[C@@H]1CC[C@@]2(O)C4=CC(=O)[C@@H]5O[C@@]4(CC[C@]2(C)[C@@]31C)OC5(C)C | – | 4.3 µM | – |
| CC1(C)OC2CCC(=O)C1O2 (stereo not drawn) | > 300 mg/kg | 5090 µM | 192 mg/kg |
| CCC1(C)CCOC1=O (stereo not drawn) | > 500 mg/kg | – | – |
| C[C@H]1CC(=O)[C@@H]2O[C@H]1OC2(C)C | – | 3090 µM | 145 mg/kg |
| CC1(C)OC2C=CC(=O)C1O2 (stereo not drawn) | < 100 mg/kg | – | > 300 mg/kg |
| CC1CC(=O)C2OC1(C)OC2(C)C (stereo not drawn) | > 300 mg/kg | 2310 µM | 140 mg/kg |
